“Also recorded” adds a separate entry of the source.
Tests used:
[1] = test system: rats with hemi-cervical spinal cord contusion (SCI); conditions: following SCI (Simard et al., 2007); cited from earlier work
[2] = rat, in vivo
Procedure: SCI injury model. This study was performed in accordance with the guidelines of the Institutional Animal Care and Use Committee. Adult female Long-Evans rats (275-350 gm) were anesthetized (Ketamine, 60 mg/kg plus Xylazine, 7.5 mg/kg, i.p.). The dura at C4-5 was exposed via a left hemilaminectomy. A hemi-cervical spinal cord contusion was created using a blunt force impactor (1.3-mm impactor head driven by a 10 gm weight dropped vertically 25 mm) (Soblosky et al., 2001; Gensel et al., 2006). After SCI, animals were given 10 ml of glucose-free normal saline s.q. Rectal temperature was maintained at ˜37° C. using a servo-controlled warming blanket. Blood gases and serum glucose 10-15 min post-SCI were: pO2, 95±6 mm Hg; pCO2, 46±3 mm Hg; pH, 7.33±0.01; glucose 258±17 mg/dl in controls and pO2, 96±7 mm Hg; pCO2, 45±2 mm Hg; pH, 7.37±0.01; glucose 242±14 mg/dl in glibenclamide-treated animals.
Drug delivery. […] During the course of the project, slightly different formulations of drug were used, with the best results obtained using stock solutions made by placing 50 mg (or 25 mg) of drug into 10 ml DMSO, and infusion solutions made by placing 400 μl (or 800 μl) stock into 4.6 ml (or 4.2 ml) unbuffered saline (0.9% NaCl) and adjusting the pH to ˜8.5 using 0.1 N NaOH.

[3] = test system: rats with hemi-cervical spinal cord contusion (SCI); conditions: following SCI (Simard et al., 2007); cited from earlier work; remark: listed apart in the source
[4] = test system: rodent models of ischemic stroke; conditions: model of malignant cerebral edema; cited from earlier work
[5] = test system: recombinant MMP-2 and MMP-9; test: Zymography, gelatinase activity of recombinant MMP; assay type: biochemical; conditions: glibenclamide 10 μM; MMP-inhibitor II 300 nM
Procedure: Zymography of recombinant MMP-2 and MMP-9 (Sigma) was performed as described (Sumii and Lo, 2002).

rats with percussion-TBI = test: Percussion-TBI model: lesion size and hippocampal neurons (Nissl sections); assay type: in vivo, rat; conditions: 7 days post-TBI
From the text: Young adult male Long-Evans rats, 240-280 gm, were studied. Rats were anesthetized (Ketamine and Xylazine) and physiological parameters including temperature and blood gases were maintained within appropriate physiological ranges. With the head fixed in a stereotaxic frame, a 6-mm circular craniectomy was created abutting the sagittal and lambdoidal sutures. A posterior location was chosen to emphasize damage to underlying hippocampus (Vink et al., 2001; Floyd et al., 2002). […] Sham controls underwent craniectomy without percussion.

[6] = test system: cells expressing SUR1-regulated NCCa-ATP channel; conditions: cited from earlier work
[7] = Long-Evans, rat, in vivo

For COc1ccc(Cl)cc1C(=O)NCCc1ccc(S(=O)(=O)NC(=O)NC2CCCCC2)cc1 [glibenclamide], the “capillary fragmentation and progressive secondary hemorrhage” value [1] is listed as “essentially eliminates”, the “blood pH” value [2] is listed as 7.37±0.01 and the pCO2 [2] is listed as 45±2 mm Hg. For the same molecule, the pO2 [2] was 96±7 mm Hg, the serum glucose [2] was 242 ± 14 mg/dL and the “reduction in lesion volume” value [3] was 3 fold. For the same molecule, the mortality [4] was “by half”, the “gelatinase activity of recombinant MMP” value [5] was “the same; also recorded: not affected” and the “lesion area on coronal sections at the epicenter of injury” value (rats with percussion-TBI; 10 rats/group) was 4.4±0.8 mm^2. The “hippocampus on Nissl stained sections” value (rats with percussion-TBI; vs vehicle) was “sparing of hippocampus”, the “oncotic (necrotic) cell death on ATP depletion” value [6] was “can be blocked” and the “time required to achieve 90% steady-state serum drug levels” value [7] was 3 h.

— patent US9375438B2, “Inhibitors of NCCa-ATP channels for therapy” (University of Maryland, Baltimore, priority 2007, dated 2016)
